Here are results for nine molecules from patent publication US20260015350A1, “AZAQUINAZOLINE PAN-KRAS INHIBITORS” (Mirati Therapeutics, Inc., priority 2022, published 2026).

As a reminder, the IC50 is the point on the concentration scale where inhibition reaches its midpoint. The low end stands for inhibition by little substance, the high end for a need for much substance.

The test system of assay [1] is KRas-mediated phosphorylation of ERK in H727 cells. The assay can be described thus: Inhibition of KRas-mediated phosphorylation of ERK (Cisbio HTRF pERK), H727 cells. The format is cell-based. The conditions noted are these: Homo sapiens, NCI-H727, H727 cells; HTRF pERK. In short, it runs like this: (§1)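 H358, H727, H460 and AsPC-1 cells seeded at 6,000/well, treated 3 hrs with 10-dose 3-fold dilutions from 10 uM (0.8% DMSO); 0.2 uM trametinib as min control. Lysed 40 min at 4° C; lysate incubated 2 hrs at room temperature with d2/cryptate antibodies, HTRF read.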

Assay [2] has as its system KRas-mediated phosphorylation of ERK in H460 cells. The assay can be described thus: Inhibition of KRas-mediated phosphorylation of ERK (Cisbio HTRF pERK), H460 cells. It is filed as cell-based. The conditions noted are these: Homo sapiens, NCI-H460, HTRF pERK. A digest of the protocol: as §1
A general note: Time-resolved FRET reads energy transfer from a long-lived donor to a nearby acceptor.

For assay [3], the system named is KRas-mediated phosphorylation of ERK in HCT116 cells. The assay can be described thus: Inhibition of KRas-mediated phosphorylation of ERK (Cisbio HTRF pERK), HCT116 cells. The format is cell-based. Conditions: Homo sapiens, HCT-116, HTRF pERK. A digest of the protocol:
(§2)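 Each compound was tested at 10 concentrations, threefold apart with 10 uM the highest, for 3 hrs on 6,000 seeded cells; final DMSO was 0.8% and Trametinib (0.2 uM) served as Min control. Lysed cells were analysed for pERK by HTRF.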

Assay [4] has as its system KRas-mediated phosphorylation of ERK in H358 cells. The assay can be described thus: Inhibition of KRas-mediated phosphorylation of ERK (Cisbio HTRF pERK), H358 cells. It is filed as cell-based. Conditions: Homo sapiens, NCI-H358, HTRF pERK. A digest of the protocol: as §1
For assay [5], the system named is KRas-mediated phosphorylation of ERK in PSN1 cells. The assay can be described thus: Inhibition of KRas-mediated phosphorylation of ERK (Cisbio HTRF pERK), PSN1 cells. It is filed as cell-based. The conditions noted are these: Homo sapiens. A digest of the protocol:
(§3)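 Day 1 seeding: 6,000 cells per well, RPMI/10% FBS, left overnight at 37° C. with 5% CO2. Plates then stood covered for 4 h at room temperature prior to HTRF detection of pERK.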

Assay [6] has as its system KRas-mediated phosphorylation of ERK in AsPC-1 cells. The assay can be described thus: Inhibition of KRas-mediated phosphorylation of ERK (Cisbio HTRF pERK), AsPC-1 cells. The format is cell-based. The conditions noted are these: Homo sapiens, ASPC1, AsPC-1 cells; HTRF pERK. In short, it runs like this: as §1
Another assay deals with T1, KRas^G12V (Homo sapiens, UniProt P01116, G12V).
T1 construct: Biotinylated KRas (corresponding to amino acids 1-169, produced at Accelegan Inc.); biotin (biotinylated); purchased Accelegan Inc
T1 sequence (P01116 1-169 isoform P01116-2 G12V): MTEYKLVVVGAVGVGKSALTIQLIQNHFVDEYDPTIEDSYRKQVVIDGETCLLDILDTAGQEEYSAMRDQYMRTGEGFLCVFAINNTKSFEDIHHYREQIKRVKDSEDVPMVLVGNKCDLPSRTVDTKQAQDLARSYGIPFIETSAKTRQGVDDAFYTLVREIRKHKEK
The assay can be described thus: KRas binding assay (TR-FRET tracer displacement), KRas G12V.

Assay [7] deals with KRas-mediated phosphorylation of ERK in MKN1 cells. The assay can be described thus: Inhibition of KRas-mediated phosphorylation of ERK (Cisbio HTRF pERK), MKN1 cells. The format is cell-based. The conditions noted are these: Homo sapiens, MKN-1. A digest of the protocol:
as §3

The target in another assay is T2, KRas^G12D (Homo sapiens, UniProt P01116, G12D).
T2 construct: Biotinylated KRas (corresponding to amino acids 1-169, produced at Accelegan Inc.); biotin (biotinylated); purchased Accelegan Inc
T2 sequence (P01116 1-169 isoform P01116-2 G12D): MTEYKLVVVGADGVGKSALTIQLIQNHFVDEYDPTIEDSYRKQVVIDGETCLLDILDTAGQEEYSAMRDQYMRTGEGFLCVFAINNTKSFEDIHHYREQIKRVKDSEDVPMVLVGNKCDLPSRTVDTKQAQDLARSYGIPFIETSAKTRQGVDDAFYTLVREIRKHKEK
The assay can be described thus: KRas binding assay (TR-FRET tracer displacement), KRas G12D.

Assay [8] deals with KRas-mediated phosphorylation of ERK in A549 cells. The assay can be described thus: Inhibition of KRas-mediated phosphorylation of ERK (Cisbio HTRF pERK), A549 cells. The format is cell-based. The conditions noted are these: Homo sapiens, HTRF pERK. In short, it runs like this:
as §2

A further assay concerns the target T3, KRas^G12R (Homo sapiens, UniProt P01116, G12R).
T3 construct: Biotinylated KRas (corresponding to amino acids 1-169, produced at Accelegan Inc.); biotin (biotinylated); purchased Accelegan Inc
The assay can be described thus: KRas binding assay (TR-FRET tracer displacement), KRas G12R.

T3 sequence (P01116 1-169 isoform P01116-2 G12R): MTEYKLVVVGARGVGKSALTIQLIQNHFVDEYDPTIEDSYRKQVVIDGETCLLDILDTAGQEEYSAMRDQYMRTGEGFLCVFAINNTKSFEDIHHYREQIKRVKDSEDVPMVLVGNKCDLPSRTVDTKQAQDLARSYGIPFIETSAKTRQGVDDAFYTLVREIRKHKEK

`C#Cc1c(F)ccc2cc(O)cc(-c3ncc4c(N5CCCC6(CC(O)C6)C5)nc(OC[C@]56CCCN5[C@H](COC(=O)N(C)C)CC6)nc4c3F)c12` (stereo partly drawn) [Example 835, ((3S,7aR)-7a-(((7-(8-ethynyl-7-fluoro-3-hydroxynaphthalen-1-yl)-8-fluoro-4-(2-hydroxy-6-azaspiro[3.5]nonan-6-yl)pyrido[4,3-d]pyrimidin-2-yl)oxy)methyl)hexahydro-1H-pyrrolizin-3-yl)methyl dimethylcarbamate]: the IC50 in [1] was determined as 72 nM; in assay [2], 72 nM; in assay [3], 137 nM; in [4], 31 nM; in assay [5], 1620 nM; in [6], 146 nM. For the same molecule, the IC50 is under 2 nM at KRas^G12V; 20 nM in assay [7]; 3 nM at KRas^G12D; 192 nM in [8]; under 2 nM on KRas^G12R.

On to `CCc1c(F)ccc2cc(O)cc(-c3ncc4c(N5CCOC[C@@]6(CCO6)C5)nc(OC[C@@]56CCCN5C[C@H](F)C6)nc4c3F)c12` [Example 836, 5-ethyl-6-fluoro-4-(8-fluoro-2-(((2R,7aS)-2-fluorotetrahydro-1H-pyrrolizin-7a(5H)-yl)methoxy)-4-((R)-1,6-dioxa-9-azaspiro[3.6]decan-9-yl)pyrido[4,3-d]pyrimidin-7-yl)naphthalen-2-ol], for which the IC50 in assay [1] was found to be 231 nM; in [2], 32 nM; in assay [3] it was 119 nM; in assay [4], 22 nM; in assay [5] it was 9790 nM; in assay [6] it was 386 nM. Further, the half-maximal inhibitory concentration (IC50) worked out at 6 nM at KRas^G12V; 19 nM in assay [7]; 24 nM on KRas^G12D; 69 nM in assay [8]; 4 nM at KRas^G12R.

Regarding `CCc1c(F)ccc2cc(O)cc(-c3ncc4c(N5CCOC[C@]6(CCO6)C5)nc(OC[C@@]56CCCN5C[C@H](F)C6)nc4c3F)c12` [Example 837, 5-ethyl-6-fluoro-4-(8-fluoro-2-(((2R,7aS)-2-fluorotetrahydro-1H-pyrrolizin-7a(5H)-yl)methoxy)-4-((S)-1,6-dioxa-9-azaspiro[3.6]decan-9-yl)pyrido[4,3-d]pyrimidin-7-yl)naphthalen-2-ol], the IC50 in [1] is 23 nM; in assay [2], 14 nM; in [3], 45 nM; in assay [4], 6 nM; in [5] it was 2990 nM; in assay [6] it was 4 nM. The 50% inhibitory concentration (IC50) was under 2 nM on KRas^G12V; 3 nM in [7]; under 2 nM on KRas^G12D; 11 nM in [8]; under 2 nM at KRas^G12R.

As to `CCc1c(F)ccc2cc(O)cc(-c3ncc4c(N5CC6CCC(COCCO)(C6)C5)nc(OC[C@@]56CCCN5C[C@H](F)C6)nc4c3F)c12` (stereo partly drawn) [Example 840, 5-ethyl-6-fluoro-4-(8-fluoro-2-(((2R,7aS)-2-fluorotetrahydro-1H-pyrrolizin-7a(5H)-yl)methoxy)-4-(1-((2-hydroxyethoxy)methyl)-3-azabicyclo[3.2.1]octan-3-yl)pyrido[4,3-d]pyrimidin-7-yl)naphthalen-2-ol], the half-maximal inhibitory concentration (IC50) in assay [1] is 299 nM; in assay [2], 145 nM; in assay [3], 239 nM; in assay [4] it was 180 nM; in assay [5], over 10000 nM; in assay [6] it was 575 nM. For the same molecule, the 50% inhibitory concentration (IC50) at KRas^G12V was determined as 4 nM; in [7], 38 nM; on KRas^G12D, 9 nM; in [8] it was 422 nM; on KRas^G12R it was 7 nM.

`CCc1c(F)ccc2cc(O)cc(-c3ncc4c(N5C[C@H]6CC[C@@H](C5)[C@@H]6O)nc(OC[C@@]56CCCN5C[C@H](F)C6)nc4c3F)c12` [Example 842, (1R,5S,8R)-3-(7-(8-ethyl-7-fluoro-3-hydroxynaphthalen-1-yl)-8-fluoro-2-(((2R,7aS)-2-fluorotetrahydro-1H-pyrrolizin-7a(5H)-yl)methoxy)pyrido[4,3-d]pyrimidin-4-yl)-3-azabicyclo[3.2.1]octan-8-ol]: the 50% inhibitory concentration (IC50) in [1] was 97 nM; in [2], 20 nM; in [3], 41 nM; in [4], 9 nM; in [5] it was over 10000 nM; in [6], 479 nM. In addition, the IC50 on KRas^G12V is under 2 nM; in assay [7] it was 1 nM; at KRas^G12D, 5 nM; in [8], 56 nM; on KRas^G12R, under 2 nM.

For the molecule `CCc1c(F)ccc2cc(O)cc(-c3ncc4c(N5CC6CCC(C5)C6(O)C(F)(F)F)nc(OC[C@@]56CCCN5C[C@H](F)C6)nc4c3F)c12` (stereo partly drawn) [Example 843, (1R,5S,8R)-3-(7-(8-ethyl-7-fluoro-3-hydroxynaphthalen-1-yl)-8-fluoro-2-(((2R,7aS)-2-fluorotetrahydro-1H-pyrrolizin-7a(5H)-yl)methoxy)pyrido[4,3-d]pyrimidin-4-yl)-8-(trifluoromethyl)-3-azabicyclo[3.2.1]octan-8-ol], the concentration for half-maximal inhibition (IC50) in assay [1] is 5300 nM; in assay [2], 162 nM; in assay [3], 305 nM; in assay [4], 478 nM; in [5], over 10000 nM; in assay [6] it was 6230 nM. Also, the concentration for half-maximal inhibition (IC50) is 79 nM at KRas^G12V; 55 nM in assay [7]; 265 nM on KRas^G12D; 2510 nM in assay [8]; 26 nM at KRas^G12R.

Turning to `CCc1c(F)ccc2cc(O)cc(-c3ncc4c(N5CC6CCC(C5)C6CO)nc(OC[C@@]56CCCN5C[C@H](F)C6)nc4c3F)c12` (stereo partly drawn) [Example 845, 5-ethyl-6-fluoro-4-(8-fluoro-2-(((2R,7aS)-2-fluorotetrahydro-1H-pyrrolizin-7a(5H)-yl)methoxy)-4-((1R,5S,8S)-8-(hydroxymethyl)-3-azabicyclo[3.2.1]octan-3-yl)pyrido[4,3-d]pyrimidin-7-yl)naphthalen-2-ol], the 50% inhibitory concentration (IC50) in assay [1] was 1150 nM; in assay [2], 80 nM; in assay [3] it was 159 nM; in [4], 241 nM; in assay [5], 3460 nM; in assay [6], 1570 nM. The half-inhibitory concentration (IC50) at KRas^G12V was found to be 10 nM; in assay [7] it was 64 nM; on KRas^G12D, 41 nM; in [8], 1190 nM; on KRas^G12R it was 11 nM.

Regarding `CCc1c(F)ccc2cc(O)cc(-c3ncc4c(N5CC6CCC(C5)C6(C)O)nc(OC[C@@]56CCCN5C[C@H](F)C6)nc4c3F)c12` (stereo partly drawn) [Example 846, (1R,5S,8R)-3-(7-(8-ethyl-7-fluoro-3-hydroxynaphthalen-1-yl)-8-fluoro-2-(((2R,7aS)-2-fluorotetrahydro-1H-pyrrolizin-7a(5H)-yl)methoxy)pyrido[4,3-d]pyrimidin-4-yl)-8-methyl-3-azabicyclo[3.2.1]octan-8-ol], the IC50 in [1] is 2850 nM; in assay [2], 238 nM; in assay [3], 572 nM; in assay [4], 746 nM; in [5], over 10000 nM; in assay [6], 4470 nM. The IC50 at KRas^G12V was 28 nM; in assay [7], 102 nM; at KRas^G12D, 159 nM; in assay [8] it was 2680 nM; at KRas^G12R it was 38 nM.

Turning to `CCc1c(F)ccc2cc(O)cc(-c3ncc4c(N5CC6CCC(C5)C6CCO)nc(OC[C@@]56CCCN5C[C@H](F)C6)nc4c3F)c12` (stereo partly drawn) [Example 847, 5-ethyl-6-fluoro-4-(8-fluoro-2-(((2R,7aS)-2-fluorotetrahydro-1H-pyrrolizin-7a(5H)-yl)methoxy)-4-((1R,5S,8S)-8-(2-hydroxyethyl)-3-azabicyclo[3.2.1]octan-3-yl)pyrido[4,3-d]pyrimidin-7-yl)naphthalen-2-ol], the IC50 is 1640 nM in [1]; 582 nM in assay [2]; 1430 nM in assay [3]; 494 nM in assay [4]; over 10000 nM in assay [5]; 4520 nM in assay [6]. In addition, the 50% inhibitory concentration (IC50) came out at 20 nM on KRas^G12V; 270 nM in assay [7]; 140 nM at KRas^G12D; 1820 nM in assay [8]; 39 nM on KRas^G12R.
